Results taken from patent US9815868B2, “Peptides binding to parallel-stranded G-quadruplexes” (NANYANG TECHNOLOGICAL UNIVERSITY, priority 2013, dated 2017).

Key:
G-quadruplexes = conditions: literature statement; cited from earlier work
[1] = biological target: T95_2T (single loop propeller-type parallel G-quadruplex); experiment: Quantitative gel mobility shift assay of Rhau55 binding to T95_2T; conditions: gel electrophoresis, DNA 100 nM, read-out: dissociation constant
Procedure: (§1) (A) T95_2 T and Htelo1 at a concentration of 100 nM were incubated for 15 minutes at room temperature with an increasing concentration of Rhau55. (B) Quantification of gel electrophoresis assays bands of T95_2 T (black dot) and Htelo1 in dilute (open square) and crowding condition (black cross).
(§2) Subsequently, a quantitative analysis of the interaction between Rhau55 and three G-quadruplexes was performed using gel electrophoresis (FIG. 4). The analysis indicated a dissociation constant of 1029 nM and 989 nM for the parallel-type form of Htelo1 (under crowded condition) and the single, loop propeller-type T95_2 T, respectively, consistent with previous published data for the full-length protein (Tran H et al. (2004) Mol Cell, 13, 101). In contrast an apparent binding of >10 μM was found with the hybrid “3+1” form 1, and an estimated Kd over 10 μM was found for Htelo2, Htelo3 and Hetol4 non-parallel forming sequences, highlighting a net preference for the human telomeric sequences forming a parallel-type G-quadruplex. From the data little effect on three (Htelo1, parallel form) and single (T95_2T) loop size was observed on Rhau55 binding affinity.

[2] = biological target: Htelo3 non-parallel G-quadruplex; experiment: Gel electrophoresis binding, Htelo3; set-up: species or system human; conditions: Htelo3 non-parallel forming sequence; read-out: estimated Kd
Procedure: (§3) DNA concentrations were fixed at 100 nM and Rhau55 was 1 μM, in 70 mM KCL and 20 mM phosphate buffer (pH=6.8).
(§4) To confirm that the observed selective effect was based on the structure rather than sequence, the binding of Rhau55 was tested using the human telomeric sequences in K^+-containing solution, with and without crowded condition (40% v/v PEG200). In diluted solutions the human telomeric sequences Htelo1, Htelo2, Htelo3 and Helo4 form a distinct and non-parallel G-quadruplex (Luu K N et al. (2006) J Am ChemSoc, 128(30), 9963-9970; Phan A T et al. (2006) Nucleic Acids Res, 34(19), 5715-5719; Lim K W et al. (2009) J Am ChemSoc, 131(12), 4301-430; Lim K W et al. (2009) Nucleic Acids Res, 37(18), 6239-6248), however in crowded conditions those sequences form a propeller-type parallel stranded G-quadruplex.
(§5) Subsequently, a quantitative analysis of the interaction between Rhau55 and three G-quadruplexes was performed using gel electrophoresis (FIG. 4). The analysis indicated a dissociation constant of 1029 nM and 989 nM for the parallel-type form of Htelo1 (under crowded condition) and the single, loop propeller-type T95_2 T, respectively, consistent with previous published data for the full-length protein (Tran H et al. (2004) Mol Cell, 13, 101). […]

[3] = test system: human telomeric sequences Htelo1-Htelo4 G-quadruplexes; experiment: Gel shift assay of human telomeric sequences with and without crowded condition (40% v/v PEG200); type: binding; conditions: human telomeric sequences in K+ solution, dilute (non-parallel) vs crowded 40% v/v PEG200 (parallel)
Procedure: as §3, §4

[4] = biological target: Htelo1 hybrid "3+1" form 1 G-quadruplex; experiment: Quantitative gel mobility shift assay, Htelo1 in dilute condition; set-up: species or system human; conditions: Htelo1 hybrid "3+1" form 1, dilute condition; read-out: apparent binding
Procedure: as §1, §2

[5] = test system: mixture of T95_2T (propeller parallel form) and HT1 (non-parallel); experiment: NMR imino proton spectra of a mixture of HT1 and T95_2T with Rhau55; type: binding; conditions: Rhau55 added to mixture of T95_2T (parallel) and HT1 (non-parallel)
Description: (§6) Rhau55 binds to various parallel G-quadruplexes DNA and RNA (FIGS. 1 and 3-5) but not to various forms of non-parallel G-quadruplexes (FIGS. 1 and 6).

[6] = biological target: Htelo4 non-parallel G-quadruplex; experiment: Gel electrophoresis binding, Htelo4; set-up: species or system human; conditions: Hetol4 non-parallel forming sequence; read-out: estimated Kd
Procedure: as §3, §4, §5

[7] = biological target: parallel-type form of Htelo1 (under crowded condition); experiment: Quantitative gel mobility shift assay, Htelo1 in crowding condition (40% PEG); type: binding, human; conditions: parallel-type form of Htelo1 under crowded condition (40% PEG); gel electrophoresis; read-out: dissociation constant
Procedure: as §1, §4
Subsequently, a quantitative analysis of the interaction between Rhau55 and three G-quadruplexes was performed using gel electrophoresis (FIG. 4). […]

[8] = biological target: Htelo2 non-parallel G-quadruplex; experiment: Gel electrophoresis binding, Htelo2; set-up: species or system human; conditions: Htelo2 non-parallel forming sequence; read-out: estimated Kd
Procedure: as §3, §4, §5

[9] = test system: parallel G-quadruplexes DNA and RNA (93del, CEB25, Pu24T, CEB1, TERC18, 12 nt TER, 10 nt TER); experiment: Native gel electrophoresis of Rhau55 with parallel G-quadruplexes; type: binding; conditions: various parallel G-quadruplexes DNA and RNA; DNA 100 μM, 70 mM KCl, 20 mM phosphate pH 6.8
Procedure: The ratio between Rhau55 and Nucleic acids is indicated on top of each lane. DNA concentrations were fixed at 100 μM, in 70 mM KCL and 20 mM phosphate buffer (pH=6.8).
Rhau55 was expressed in Escherichia coli. The binding of Rhau55 to different G-quadruplexes nucleic acids topology was first tested using gel electrophoresis.
as §6

Compound | dissociation constant Kd (G-quadruplexes) | Kd [1] [nM] | Kd [2] [µM] | binding in gel shift assay [3] | Kd [4] [µM] | effect on NMR imino proton peaks [5] | Kd [6] [µM] | Kd [7] [nM] | Kd [8] [µM] | binding in gel electrophoresis [9]
C[n+]1cc(NC(=O)c2ccc3ccc4ccc(C(=O)Nc5cc6ccccc6[n+](C)c5)nc4c3n2)cc2ccccc21 [Phen-DC3] | nanomolar range | – | – | – | – | – | – | – | – | –
Rhau55: G-quadruplex binding domain of human helicase Rhau (DHX36), N-terminal residues 53 to 105, expressed in Escherichia coli (HPGHLKGREIGMWYAKKQGQKNKEAERQERAVVHMDERREEQIVQLLNSVQAK; UniProt Q9H2U1 53-105, looked up, fragment) | – | 989 | > 10 | binds significantly only to a parallel-type G-quadruplex | > 10 | only affect the peaks of the former form | > 10 | 1030 | > 10 | binds
